Here are results for 17 compounds from patent US10421722B2, “Sulfur-containing compounds targeting vesicular acetylcholine transporter” (Washington University, priority 2016, dated 2019).

Assay [1] addresses σ1 receptor (Cavia porcellus (Guinea pig), UniProt Q60492). Nature of the assay: σ1 receptor binding, [3H](+)-Pentazocine. As to conditions: for Ki: oxalate form, homogenates of guinea pig brain, mean ± SEM; for Selectivity ratio VAChT/σ1: ratio of Ki values. How it is done:
(§1) In vitro binding studies were performed to measure the affinities to the VAChT and σ1 and σ2 receptors. VAChT binding was assayed using membrane homogenate from PC12 cells which overexpress human VAChT.^8 The σ1 and σ2 binding affinities were assayed in […], respectively.
(§2) Briefly, to measure the σ1 receptor binding affinity, we use guinea pig brain membrane homogenates (˜300 μg protein) tissues as the receptor resource and ˜5 nM [^3H](+)-Pentazocine (34.9 Ci/mmol, Perkin Elmer, Boston, Mass.) as the radioligand. The mixture was incubated in 96-well plates for 90 min at room temperature. Nonspecific binding was determined from samples containing 10 μM of nonradioactive Haloperidol. After 90 min, the mixture was transferred into a 96-well fiberglass filter plate (Millipore, Billerica, Mass.) presoaked with 100 μL of 50 mM Tris-HCl buffer at pH 8.0 for 60 min, followed by addition of 150 μL of ice-cold wash buffer (10 mM Tris-HCl, 150 mM NaCl, pH 7.4). The harvested samples were filtered rapidly and washed with 3×200 μL portions of ice-cold wash buffer, and the filterers were counted by a Wallac 1450 MicroBeta liquid scintillation counter (Perkin-Elmer, Boston, Mass.). […] The mixture was incubated for 120 min at room temperature. Nonspecific binding was determined from samples containing 10 μM of nonradioactive Haloperidol. All other procedures were similar to those described for the σ1 receptor binding assay above. Data from the competitive binding experiments were modeled using nonlinear regression analysis to determine the concentration that inhibits 50% of the specific binding of the radioligand. Competitive binding curves were best fit to a one-site fit and gave pseudo-Hill coefficients of 0.6-1.0. Ki values were calculated using the method of Cheng and Prusoff,^35 then presented as the mean±SEM.

In assay [2] the target is human VAChT (Homo sapiens (Human), UniProt Q16572). Nature of the assay: VAChT binding, competition against [3H]Vesamicol. As to conditions: oxalate form, expressed human VAChT, mean ± SEM. How it is done:
as §1
The test compounds were assayed in increments of 10-fold from 0.1 to 10,000 nM concentration. The surfaces of containers were pre-coated with Sigmacote (Sigma-Aldrich, Mo.). Samples containing 200 μg postnuclear supernatant in 200 μL of 110 mM potassium tartrate, 20 mM HEPES (pH 7.4 with KOH), 1 mM dithiothreitol, and 0.02% sodium azide were incubated at 22° C. for 24 h. A volume of 90 μL was filtered in duplicate through GF/F glass fiber filters coated with polyethylenimine and washed. Filter-bound radioactivity was determined by liquid scintillation spectrometry for 10 min per sample. Averaged data were fitted by regression with a rectangular hyperbola to estimate Ki value. All the compounds were independently assayed at least two times.

For assay [3], the target named is σ2 receptor (Rattus norvegicus (Rat), UniProt Q5U3Y7). Nature of the assay: σ2 receptor binding, [3H]DTG. As to conditions: for Ki: oxalate form, homogenates of rat liver; for Selectivity ratio VAChT/σ2: ratio of Ki values. The method, then:
In vitro binding studies were performed to measure the affinities to the VAChT and σ1 and σ2 receptors. […]
as §2

Where [4] appears, read: Table 1, read-out: Ki (nM) for VAChT.
The mark [5] stands for this setting: Table 2, read-out: Ki (nM) VAChT.

Where two headings read alike, the source gives them in different places.

σ1 receptor, sequence (Q60492 whole entry): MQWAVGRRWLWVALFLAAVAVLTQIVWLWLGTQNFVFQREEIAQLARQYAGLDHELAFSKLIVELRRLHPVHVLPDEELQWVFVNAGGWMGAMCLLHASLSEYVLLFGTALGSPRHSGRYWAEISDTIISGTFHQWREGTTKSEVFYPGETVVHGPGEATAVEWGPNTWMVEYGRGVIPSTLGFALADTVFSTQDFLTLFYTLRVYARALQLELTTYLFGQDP
human VAChT, sequence (Q16572 whole entry): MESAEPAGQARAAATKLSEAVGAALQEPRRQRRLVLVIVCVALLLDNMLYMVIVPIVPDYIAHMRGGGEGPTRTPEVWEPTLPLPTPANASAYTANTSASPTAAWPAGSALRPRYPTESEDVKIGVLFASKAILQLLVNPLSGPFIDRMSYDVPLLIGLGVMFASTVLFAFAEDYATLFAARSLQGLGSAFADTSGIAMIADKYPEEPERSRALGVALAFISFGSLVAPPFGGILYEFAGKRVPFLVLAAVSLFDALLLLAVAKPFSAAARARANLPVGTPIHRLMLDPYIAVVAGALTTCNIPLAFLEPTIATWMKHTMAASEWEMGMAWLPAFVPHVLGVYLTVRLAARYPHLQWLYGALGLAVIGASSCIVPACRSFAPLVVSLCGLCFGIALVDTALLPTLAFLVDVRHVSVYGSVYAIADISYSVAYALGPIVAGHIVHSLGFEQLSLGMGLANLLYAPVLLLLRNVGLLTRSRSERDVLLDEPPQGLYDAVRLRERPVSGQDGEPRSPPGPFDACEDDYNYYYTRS
σ2 receptor, sequence (Q5U3Y7 whole entry): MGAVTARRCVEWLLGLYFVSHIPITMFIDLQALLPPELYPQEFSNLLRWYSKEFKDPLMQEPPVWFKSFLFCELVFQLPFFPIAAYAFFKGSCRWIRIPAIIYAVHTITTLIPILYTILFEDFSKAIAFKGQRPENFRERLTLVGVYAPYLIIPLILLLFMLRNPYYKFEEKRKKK

As a reminder, the Ki is a measure of affinity in units of concentration, obtained from inhibition or displacement. For the compound `CS(=O)(=O)c1ccc(C(=O)C2CCN(C3Cc4ccccc4CC3O)CC2)cc1` (racemic) [Compound 2, (1-(3-Hydroxy-1,2,3,4-tetrahydronaphthalen-2-yl)piperidin-4-yl)(4 (methylsulfonyl)phenyl)methanone], in assay [1], affinity was put at a Ki of 16.5 ± 2.1 nM and the “Selectivity ratio VAChT/σ1” value was 3.1. For the same compound, the Ki in assay [2] (setting [4]) was determined as 5.4 nM. Also, in assay [3], the Ki was greater than 1000 nM and the “Selectivity ratio VAChT/σ2” value is listed as greater than 185.
`CSc1ccc(C(=O)C2CCN(C3Cc4ccccc4CC3O)CC2)cc1` (racemic) [Compound 3, (1-(3-Hydroxy-1,2,3,4-tetrahydronaphthalen-2-yl)piperidin-4-yl)(4-(methylthio)phenyl)methanone]: in assay [1], affinity was put at a Ki of 17.2 ± 4 nM and the “Selectivity ratio VAChT/σ1” value turned out to be 7.2. For the same compound, the Ki in assay [2] (setting [4]) came out at 2.4 nM. Besides, in assay [3], the inhibition constant (Ki) was greater than 1000 nM and the “Selectivity ratio VAChT/σ2” value is greater than 416.
Take `O=C(c1ccc(SCCF)cc1)C1CCN(C2Cc3ccccc3CC2O)CC1` (racemic) [Compound 9a, (4-((2-Fluoroethyl)thio)phenyl)(1-(3-hydroxy-1,2,3,4-tetrahydronaphthalen-2-yl)piperidin-4-yl)methanone]: in assay [1], the Ki is 16.7 ± 2.1 nM and the “Selectivity ratio VAChT/σ1” value was determined as 7.0. Moreover, the inhibitory constant (Ki) in assay [2] (setting [4]) was 2.4 nM. Moreover, in assay [3], the Ki was greater than 1000 nM and the “Selectivity ratio VAChT/σ2” value is on record as greater than 416.
As for `O=C(c1ccc(SCCCF)cc1)C1CCN(C2Cc3ccccc3CC2O)CC1` (racemic) [Compound 9b, (4-((3-Fluoropropyl)thio)phenyl)(1-(3-hydroxy-1,2,3,4-tetrahydronaphthalen-2-yl)piperidin-4-yl)methanone], in assay [1], the Ki was found to be 40.8 ± 4.1 nM and the “Selectivity ratio VAChT/σ1” value is 17.7. Moreover, the Ki in assay [2] (setting [4]) is 2.3 nM. Besides, in assay [3], the Ki was greater than 1000 nM and the “Selectivity ratio VAChT/σ2” value is greater than 434.
As to `CS(=O)(=O)c1ccc(C(=O)C2CCN([C@@H]3Cc4ccccc4C[C@H]3O)CC2)cc1` (single isomer, unassigned) [(+)-2], the Ki in assay [1] was 18.5 ± 3.4 nM; in assay [2] (setting [5]), 193 ± 17.8 nM; in assay [3], greater than 1000 nM. Moreover, the “Selectivity ratio VAChT/σ1” value in assay [1] was determined as 0.1. For the same compound, the “Selectivity ratio VAChT/σ2” value in assay [3] is listed as greater than 5.
Taken in the same sequence, the figures for `CSc1ccc(C(=O)C2CCN([C@@H]3Cc4ccccc4C[C@H]3O)CC2)cc1` (single isomer, unassigned) [(+)-3] were 23.3 ± 2.9 nM, 13.8 ± 1.1 nM, greater than 1000 nM, 1.7 and greater than 72.
The corresponding values for `O=C(c1ccc(SCCF)cc1)C1CCN([C@@H]2Cc3ccccc3C[C@H]2O)CC1` (single isomer, unassigned) [(+)-9a] are 14.4 ± 2 nM, 11.8 ± 2.7 nM, greater than 1000 nM, 1.2 and greater than 84.
With `O=C(c1ccc(SCCCF)cc1)C1CCN([C@@H]2Cc3ccccc3C[C@H]2O)CC1` (single isomer, unassigned) [(+)-9b], in assay [1], the Ki was 38.6 ± 7.1 nM and the “Selectivity ratio VAChT/σ1” value is 1.9. Further, the Ki in assay [2] (setting [5]) was 19.9 ± 9.2 nM. Further, in assay [3], the Ki is greater than 1000 nM and the “Selectivity ratio VAChT/σ2” value was greater than 50.
As to `O=C(c1ccc(SCCF)cc1)C1CCN([C@@H]2Cc3ccccc3C[C@H]2O)CC1` (single isomer, unassigned) [(−)-[^18F]9a], the Ki in assay [2] (Table 2, listed as (−)-[18F]9a, read-out: Ki (nM) VAChT) was found to be 2.2 nM.
Regarding `CS(=O)(=O)c1ccc(C(=O)C2CCN(C3Cc4ccccc4CC3O)CC2)cc1` (single isomer, unassigned; (-)) [(−)-2], in assay [1], the Ki was found to be 34.7 ± 4.9 nM and the “Selectivity ratio VAChT/σ1” value is given as 8.5. In addition, in assay [2] (setting [5]), the inhibitory constant (Ki) is 4.1 ± 0.9 nM. Moreover, in assay [3], the Ki was greater than 1000 nM and the “Selectivity ratio VAChT/σ2” value was greater than 243.
The corresponding values for `CSc1ccc(C(=O)C2CCN(C3Cc4ccccc4CC3O)CC2)cc1` (single isomer, unassigned; (-)) [(−)-3] are 19 ± 5.6 nM, 13.6, 1.4 nM, greater than 1000 nM and greater than 714.
The corresponding values for `O=C(c1ccc(SCCF)cc1)C1CCN(C2Cc3ccccc3CC2O)CC1` (single isomer, unassigned; (-)) [(−)-9a] are 30.8 ± 4.1 nM, 13.4, 2.2 nM, greater than 1000 nM and greater than 454.
Taken in the same sequence, the figures for `O=C(c1ccc(SCCCF)cc1)C1CCN(C2Cc3ccccc3CC2O)CC1` (single isomer, unassigned; (-)) [(−)-9b] were 4.1 ± 0.7 nM, 2.9, 1.4 nM, greater than 1000 nM and greater than 714.
`C[S+]([O-])c1ccc(C(=O)C2CCN(C3Cc4ccccc4CC3O)CC2)cc1` (centres unmarked) [Compound 4, (1-(3-Hydroxy-1,2,3,4-tetrahydronaphthalen-2-yl)piperidin-4-yl)(4-(methylsulfinyl)phenyl)methano-ne]: in assay [2] (setting [4]), the inhibition constant (Ki) was determined as 6.5 nM.
For the compound `CNS(=O)(=O)c1ccc(C(=O)C2CCN(C3Cc4ccccc4CC3O)CC2)cc1` (centres unmarked) [Compound 6a, 4-(1-(3-Hydroxy-1,2,3,4-tetrahydronaphthalen-2-yl)piperidine-4-carbonyl)-N-methylbenzenesulfon-amide], in assay [2] (setting [4]), the Ki came out at 6.3 nM.
The same measure, in the same setting: in the case of `O=C(c1ccc(S(=O)(=O)NCCF)cc1)C1CCN(C2Cc3ccccc3CC2O)CC1` (centres unmarked) [Compound 6b, N-(2-fluoroethyl)-4-(1-(3-hydroxy-1,2,3,4-tetrahydronaphthalen-2-yl)piperidine-4-carbonyl)benzenesulfonamide] it was 13 nM; in that of `O=C(c1ccc(S(=O)(=O)CCCF)cc1)C1CCN(C2Cc3ccccc3CC2O)CC1` (centres unmarked) [Compound 7, (4-((3-Fluoropropyl)sulfonyl)phenyl)(1-(3-hydroxy-1,2,3,4-tetrahydronaphthalen-2-yl)piperidin-4-yl)methanone], 12.8 ± 0.7 nM.
